# pIC50: −log10 of the molar value.
# Biological target: hKIF18A (1-374) (Homo sapiens (Human), UniProt Q8NI77)
# Assay: Inhibition of KIF18A microtubule-dependent ATPase activity (ADP-Glo)
# Details: not given
# hKIF18A (1-374), sequence (Q8NI77 whole entry, looked up): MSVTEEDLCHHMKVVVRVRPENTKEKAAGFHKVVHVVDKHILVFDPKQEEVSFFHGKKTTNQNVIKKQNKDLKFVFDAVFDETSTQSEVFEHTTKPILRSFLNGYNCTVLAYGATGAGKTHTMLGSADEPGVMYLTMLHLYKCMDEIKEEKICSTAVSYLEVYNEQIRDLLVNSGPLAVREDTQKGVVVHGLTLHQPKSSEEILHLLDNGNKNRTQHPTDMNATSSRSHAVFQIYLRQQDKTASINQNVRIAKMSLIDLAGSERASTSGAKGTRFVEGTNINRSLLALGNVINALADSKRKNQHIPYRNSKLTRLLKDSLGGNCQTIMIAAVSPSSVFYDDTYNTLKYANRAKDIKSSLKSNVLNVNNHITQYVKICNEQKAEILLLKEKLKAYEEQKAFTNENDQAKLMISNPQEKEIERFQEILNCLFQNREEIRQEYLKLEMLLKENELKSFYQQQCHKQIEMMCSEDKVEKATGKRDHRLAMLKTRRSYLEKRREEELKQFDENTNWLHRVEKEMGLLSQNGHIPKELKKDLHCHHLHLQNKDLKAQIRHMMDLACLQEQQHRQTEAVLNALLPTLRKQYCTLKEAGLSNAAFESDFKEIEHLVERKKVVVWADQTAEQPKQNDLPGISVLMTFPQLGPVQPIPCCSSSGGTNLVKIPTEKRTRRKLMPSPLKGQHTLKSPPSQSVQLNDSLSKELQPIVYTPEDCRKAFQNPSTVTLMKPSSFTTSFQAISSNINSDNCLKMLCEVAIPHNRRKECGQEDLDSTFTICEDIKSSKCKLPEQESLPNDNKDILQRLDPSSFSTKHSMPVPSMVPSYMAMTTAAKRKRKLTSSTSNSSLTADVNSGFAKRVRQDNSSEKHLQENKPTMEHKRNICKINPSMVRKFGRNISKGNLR
# hKIF18A (1-374), sequence (Q2XVP4 whole entry partner, looked up): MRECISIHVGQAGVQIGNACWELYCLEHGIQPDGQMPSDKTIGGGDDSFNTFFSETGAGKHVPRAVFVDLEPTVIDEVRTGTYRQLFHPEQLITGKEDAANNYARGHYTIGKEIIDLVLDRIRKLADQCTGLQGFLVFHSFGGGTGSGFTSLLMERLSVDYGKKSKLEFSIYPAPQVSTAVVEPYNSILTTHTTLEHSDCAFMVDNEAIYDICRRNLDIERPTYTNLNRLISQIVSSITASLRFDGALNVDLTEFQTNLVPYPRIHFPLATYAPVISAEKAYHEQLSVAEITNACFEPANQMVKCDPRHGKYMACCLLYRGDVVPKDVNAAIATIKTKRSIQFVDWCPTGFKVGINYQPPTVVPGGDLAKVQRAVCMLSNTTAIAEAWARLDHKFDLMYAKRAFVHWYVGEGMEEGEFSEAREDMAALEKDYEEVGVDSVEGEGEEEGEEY
# hKIF18A (1-374), sequence (P02554 whole entry partner, looked up): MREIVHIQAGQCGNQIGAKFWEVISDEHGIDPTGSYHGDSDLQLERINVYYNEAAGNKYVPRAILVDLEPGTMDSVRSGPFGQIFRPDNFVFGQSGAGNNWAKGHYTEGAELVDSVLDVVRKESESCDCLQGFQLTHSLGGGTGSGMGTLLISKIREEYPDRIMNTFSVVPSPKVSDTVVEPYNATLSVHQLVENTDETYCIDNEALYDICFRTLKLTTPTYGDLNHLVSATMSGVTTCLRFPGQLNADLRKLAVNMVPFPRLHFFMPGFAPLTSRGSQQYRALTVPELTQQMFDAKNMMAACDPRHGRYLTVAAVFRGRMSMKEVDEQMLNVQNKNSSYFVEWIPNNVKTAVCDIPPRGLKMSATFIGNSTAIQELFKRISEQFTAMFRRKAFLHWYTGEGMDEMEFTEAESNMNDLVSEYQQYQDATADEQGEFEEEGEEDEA
row,pIC50,SMILES
1,6.13,"CC1CCC2(CC1)CN(C(=O)c1cccc(S(=O)(=O)N3CCC(F)(F)CC3)c1)c1ccc(Br)cc12 (stereo not shown) [Compound 15, (5′-bromo-4-methylspiro[cyclohexane-1,3′-indolin]-1′-yl)(3-((4,4-difluoropiperidin-1-yl)sulfonyl)phenyl)methanone]"

# Same assay, conditions: KIF18A microtubule-dependent ATPase activity, biochemical assay
row,pIC50,SMILES
1,7.00,"CC(C)NS(=O)(=O)c1cccc(C(=O)N2CC3(CCCCC3)c3cc(NS(C)(=O)=O)ccc32)c1 [Compound 48, N-isopropyl-3-(5′-(methylsulfonamido)spiro[cyclohexane-1,3′-indoline]-1′-carbonyl)benzenesulfonamide]"
2,8.15,"CS(=O)(=O)Nc1ccc2c(c1)C1(CCC3(CC3)CC1)CN2C(=O)c1ccc(C(O)C2CC(F)(F)C2)o1 (stereo not shown) [Compound 369, N-(1″-(5-((3,3-difluorocyclobutyl)(hydroxy)methyl)furan-2-carbonyl)dispiro[cyclopropane-1,1′-cyclohexane-4′,3″-indolin]-5″- yl)methanesulfonamide]"
3,7.74,"CS(=O)(=O)Nc1ccc2c(c1)C1(CCC3(CC3)CC1)CN2C(=O)c1ccnc(C(O)C2CCCC2)c1 (stereo not shown) [Compound 316, N-(1″-(2-(cyclopentyl(hydroxy)methyl)isonicotinoyl)dispiro[cyclopropane-1,1′-cyclohexane-4′,3″-indolin]-5″- yl)methanesulfonamide]"
4,7.74,"CS(=O)(=O)Nc1ccc2c(c1)C1(CCC3(CC3)CC1)CN2C(=O)c1csc(S(=O)(=O)N2CC3(CCO3)C2)c1 [Compound 283, N-(1″-(5-((1-oxa-6-azaspiro[3.3]heptan-6-yl)sulfonyl)thiophene-3-carbonyl)dispiro[cyclopropane-1,1′-cyclohexane-4′,3″-indolin]-5″- yl)methanesulfonamide]"
5,7.32,"CC(C)(C)NS(=O)(=O)c1cccc(C(=O)N2CC3(CCC4(CC4)CC3)c3cc(C(O)C(F)(F)F)ccc32)c1 (single isomer, unassigned) [Compound 338a]"
6,7.46,"CCS(=O)(=O)Nc1ccc2c(c1)C1(CCC3(CC3)CC1)CN2C(=O)c1ccc([C@@H](O)C(C)(C)C)o1 (single isomer, unassigned) [Compound 372b]"
7,7.70,"CS(=O)(=O)Nc1ccc2c(c1)C1(CCC3(CC3)CC1)CN2C(=O)c1cccc(C(O)C2CCC2)c1 (stereo not shown) [Compound 313, N-(1″-(3-(cyclobutyl(hydroxy)methyl)benzoyl)dispiro[cyclopropane-1,1′-cyclohexane-4′,3″-indolin]-5″- yl)methanesulfonamide]"
8,8.06,"CS(=O)(=O)Nc1ccc2c(c1)C1(CCC3(CC3)CC1)CN2C(=O)c1cccc(C(O)C2CC(F)(F)C2)c1 (stereo not shown) [Compound 351, N-(1″-(3-((3,3-difluorocyclobutyl)(hydroxyj)methyl)benzoyl)dispiro[cyclopropane-1,1′-cyclohexane-4′,3″-indolin]-5″- yl)methanesulfonamide]"
9,6.74,"CS(=O)(=O)Nc1ccc2c(c1)C1(CCCCC1)CN2C(=O)c1cccc(S(=O)(=O)N2CCCC2)c1 [Compound 241, N-(1′-(3-(pyrrolidin-1-ylsulfonyl)benzoyl)spiro[cyclohexane-1,3′-indolin]-5′-yl)methanesulfonamide]"
10,6.72,"CN(c1cccc(C(=O)N2CC3(CCC4(CC4)CC3)c3cc(NS(C)(=O)=O)ccc32)c1)C1CCCC1 [Compound 348, N-(1″-(3-(cyclopentyl(methyl)amino)benzoyl)dispiro[cyclopropane-1,1′-cyclohexane-4′,3″-indolin]-5″- yl)methanesulfonamide]"
11,6.89,"CS(=O)(=O)Nc1ccc2c(c1)C1(CCCCC1)CN2C(=O)c1cccc(S(=N)(=O)C2CCCC2)c1 (stereo not shown) [Compound 49, N-(1′-(3-(cyclopentanesulfonamidoyl)benzoyl)spiro[cyclohexane-1,3′-indolin]-5′-yl)methanesulfonamide]"
12,7.77,"CS(=O)(=O)Nc1ccc2c(c1)C1(CCC3(CC3)CC1)CN2C(=O)c1cccc(S(=N)(=O)C2CCCC2)c1 (stereo not shown) [Compound 287, N-(1″-(3-(cyclopentanesulfonimidoyl)benzoyl)dispiro[cyclopropane-1,1′-cyclohexane-4′,3″-indolin]-5″- yl)methanesulfonamide]"
13,7.47,"CS(=O)(=O)Nc1ccc2c(c1)C1(CCC3(CC3)CC1)CN2C(=O)c1cccc(S(=N)(=O)C2CCCC2)c1 (single isomer, unassigned) [Compound 287a]"
14,7.92,"CS(=O)(=O)Nc1ccc2c(c1)C1(CCC3(CC3)CC1)CN2C(=O)c1csc(S(=O)(=O)C2CCCC2)c1 [Compound 330, N-(1″-(5-(cyclopentylsulfonyl)thiophene-3-carbonyl)dispiro[cyclopropane-1,1′-cyclohexane-4′,3″-indolin]-5″- yl)methanesulfonamide]"
15,7.80,"CS(=O)(=O)Nc1ccc2c(c1)C1(CCC3(CC3)CC1)CN2C(=O)c1ccnc([C@H](O)C2CCCC2)c1 (single isomer, unassigned) [Compound 316b]"
16,7.43,CC(C)(C)NS(=O)(=O)c1cccc(C(=O)N2C[C@]3(CC[C@@H](C(F)F)CC3)c3cc(NS(C)(=O)=O)ccc32)c1 [Compound 162b]
17,8.05,"CS(=O)(=O)Nc1ccc2c(c1)C1(CCC3(CC3)CC1)CN2C(=O)c1cccc(C(O)CC2CCC2)c1 (stereo not shown) [Compound 305, N-(1″-(3-(2-cyclobutyl-1-hydroxyethyl)benzoyl)dispiro [cyclopropane-1,1′-cyclohexane-4′,3″-indolin]-5″-yl)methanesulfonamide]"

row,pIC50,SMILES
1,6.72,"CS(=O)(=O)Nc1ccc2c(c1)C1(CCCCC1)CN2C(=O)c1cccc(SC2CCCC2)c1 [Compound 146, N-(1′-(3-(cyclopentylthio)benzoyl)spiro[cyclohexane-1,3′-indolin]-5′-yl)methanesulfonamide]"
2,7.92,"CC(NS(=O)(=O)c1cccc(C(=O)N2CC3(CCC4(CC4)CC3)c3cc(NS(C)(=O)=O)ccc32)c1)C1CC1 (stereo not shown) [Compound 186, N-(1-cyclopropylethyl)-3-(5″- (methylsulfonamido)dispiro[cyclopropane-1,1′-cyclohexane-4′,3″-indoline]-1″-carbonyl)benzenesulfonamide]"
3,7.92,"CC1CN(S(=O)(=O)c2cccc(C(=O)N3CC4(CCC5(CC5)CC4)c4cc(NS(C)(=O)=O)ccc43)c2)C1 [Compound 260, N-(1″-(3-((3-methylazetidin-1-yl)sulfonyl)benzoyl)dispiro[cyclopropane-1,1′-cyclohexane-4′,3″-indolin]-5″- yl)methanesulfonamide]"
4,7.19,"CCC(CO)NS(=O)(=O)c1cccc(C(=O)N2CC3(CCC4(CC4)CC3)c3cc(NS(C)(=O)=O)ccc32)c1 (stereo not shown) [Compound 208, N-(1-hydroxybutan-2-yl)-3-(5″- (methylsulfonamido)dispiro[cyclopropane-1,1′-cyclohexane-4′,3″-indoline]-1″-carbonyl)benzenesulfonamide]"
5,7.11,"CCN(c1ccc2c(c1)C1(CCC3(CC3)CC1)CN2C(=O)c1cccc(S(=O)(=O)N2CCC(F)(F)CC2)c1)S(C)(=O)=O [Compound 32, N-(1″-(3-((4,4-difluoropiperidin-1-yl)sulfonyl)benzoyl)dispiro[cyclopropane-1,1′-cyclohexane-4′,3″-indolin]-5″- yl)-N-ethylmethanesulfonamide]"
6,7.72,"CS(=O)(=O)Nc1ccc2c(c1)C1(CCC3(CC3)CC1)CN2C(=O)c1cccc([C@@H](O)C2CCC2)c1 (single isomer, unassigned) [Compound 313a]"
7,6.77,"CC(C)(C)NS(=O)(=O)c1cc(F)cc(C(=O)N2CC3(CCCCC3)c3cc(NS(C)(=O)=O)ccc32)c1 [Compound 95, N-(tert-butyl)-3-fluoro-5-(5′-(methylsulfonamido)spiro[cyclohexane-1,3′-indoline]-1′-carbonyl)benzenesulfonamide]"
8,5.92,"CC(C)(C)NS(=O)(=O)c1ccc(C(=O)N2CC3(CCCCC3)c3cc(NS(C)(=O)=O)ccc32)s1 [Compound 60, N-(tert-butyl)-5-(5′-(methylsulfonamido)spiro[cyclohexane-1,3′-indoline]-1′-carbonyl)thiophene-2-sulfonamide]"
9,7.43,"CCS(=O)(=O)Nc1ccc2c(c1)C1(CCC3(CC3)CC1)CN2C(=O)c1ccc([C@H](O)C(C)(C)C)o1 (single isomer, unassigned) [Compound 372a]"
10,6.11,"CC1CCC2(CC1)CN(C(=O)c1cccc(S(=O)(=O)N3CCC(F)(F)CC3)c1)c1ccc(Br)cc12 (stereo not shown) [Compound 15, (5′-bromo-4-methylspiro[cyclohexane-1,3′-indolin]-1′-yl)(3-((4,4-difluoropiperidin-1-yl)sulfonyl)phenyl)methanone]"
11,6.70,"CC(C)(C)[C@@H](O)c1ccc(C(=O)N2CC3(CCC4(CC4)CC3)c3cc(NS(C)(=O)=O)ccc32)o1 (single isomer, unassigned) [Compound 373a]"
12,8.46,"O=C(c1ccc(C(O)C2CCCC2)o1)N1CC2(CCC3(CC3)CC2)c2cc(NS(=O)(=O)CCO)ccc21 (single isomer, unassigned) [Compound 368b]"
13,6.55,"CS(=O)(=O)Nc1ccc2c(c1)C1(CCC3(CC3)CC1)CN2C(=O)c1cccc(NC2CCCC2)c1 [Compound 347, N-(1″-(3-(cyclopentylamino)benzoyl)dispiro [cyclopropane-1,1′-cyclohexane-4′,3″- indolin]-5″-yl)methanesulfonamide]"
14,8.34,"O=C(c1cccc(S(=O)(=O)N2CC3(CCC3)C2)c1)N1CC2(CCC3(CC3)CC2)c2cc(NS(=O)(=O)CCO)ccc21 [Compound 228, N-(1″-(3-((2-azaspiro[3.3]heptan-2-yl)sulfonyl)benzoyl)dispiro[cyclopropane-1,1′-cyclohexane-4′,3″-indolin]-5″- yl)-2-hydroxyethane-1-sulfonamide]"
15,6.82,"CC(O)c1ccc2c(c1)C1(CCC3(CC3)CC1)CN2C(=O)c1cccc(S(=O)(=O)NC(C)(C)C)c1 (stereo not shown) [Compound 332, N-(tert-butyl)-3-(5″-(1-hydroxyethyl)dispiro[cyclopropane-1,1′-cyclohexane-4′,3″-indoline]-1″-carbonyl)benzenesulfonamide]"
16,6.85,"CC(C)(C)NS(=O)(=O)c1cccc(C(=O)N2CC3(CC=CC3)c3cc(NS(C)(=O)=O)ccc32)c1 [Compound 243, N-(tert-butyl)-3-(5′-(methylsulfonamido)spiro[cyclopentane-1,3′-indolin]-3-en-1′-carbonyl)benzenesulfonamide]"
